Test results as given in publication PMC10130856 (Heliyon, 2023).

Biological target: hen egg-white lysozyme (HEWL) (Gallus gallus, UniProt P00698)
Assay: intrinsic tryptophan fluorescence quenching
Type: binding
Details: pH 7.4, 20 mM sodium phosphate, 298.15 K, 5 μM protein; double-log

Sequence of hen egg-white lysozyme (HEWL) (P00698 19-147): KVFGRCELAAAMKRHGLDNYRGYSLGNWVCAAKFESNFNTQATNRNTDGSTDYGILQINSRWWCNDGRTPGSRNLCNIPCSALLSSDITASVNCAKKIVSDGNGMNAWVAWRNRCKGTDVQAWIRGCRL

- Kb(M^-1): 2.96 × 10^8±0.21 M^−1
Structure (SMILES): CCCCC(=O)N(Cc1ccc(-c2ccccc2-c2nn[nH]n2)cc1)[C@H](C(=O)O)C(C)C [valsartan]
